Results from ChEMBL document CHEMBL5126603, “Discovery of Clinical Candidate CHF-6366: A Novel Super-soft Dual Pharmacology Muscarinic Antagonist and β2 Agonist (MABA) for the Inhaled Treatment of Respiratory Diseases” (J Med Chem, 2022).

Key:
[1] = Metabolic stability in human lung S9 fraction assessed as half life at 1 uM measured after 0 to 60 mins in presence of NADPH by LC-MS/MS analysis; assay type: ADME, subcellular; conditions: time 0-60 min
[2] = Metabolic stability in human plasma assessed as half life at 5 uM measured upto 120 mins by LC-MS/MS analysis; assay type: ADME, cell-free
[3] = Metabolic stability in rat plasma assessed as half life at 5 uM measured upto 120 mins by LC-MS/MS analysis; assay type: ADME, cell-free
Trachea [4] = assay: In vivo bifunctional antagonist activity at muscarinic M3 receptor /agonist activity at beta-2 adrenoceptor in Dunkin-Hartley guinea pig trachea assessed as time duration for inhibition of carbachol induced contraction measured […]; assay type: functional, Cavia porcellus
Trachea [5] = assay: In vivo bifunctional antagonist activity at muscarinic M3 receptor /agonist activity at beta-2 adrenoceptor in Dunkin-Hartley guinea pig trachea assessed as inhibition of carbachol induced contraction; assay type: functional, tissue-based; conditions: Cavia porcellus
[6] = Metabolic stability in rat lung S9 fraction assessed as half life at 1 uM measured after 0 to 60 mins in presence of NADPH by LC-MS/MS analysis; assay type: ADME, subcellular; conditions: time 0-60 min
[7] = Metabolic stability in Dunkin-Hartley guinea pig lung S9 fraction assessed as half life at 1 uM measured after 0 to 60 mins in presence of NADPH by LC-MS/MS analysis; assay type: ADME, subcellular, Cavia porcellus; conditions: time 0-60 min
[8] = Metabolic stability in Dunkin-Hartley guinea pig plasma assessed as half life at 5 uM measured upto 120 mins by LC-MS/MS analysis; assay type: ADME, cell-free, Cavia porcellus
[9] = (§1) In vivo antagonist activity at muscarinic M3 receptor in Dunkin-Hartley guinea pig trachea assessed as inhibition of acetylcholine-induced bronchoconstriction at 3 nmol/Kg, IT(Intratracheal) measured after 1 hr in presence of ICI-118551 by Konzett-Roessler methodology relative to control; assay type: functional; conditions: Cavia porcellus
[10] = In vivo agonist activity at beta-2 adrenoceptor in Dunkin-Hartley guinea pig trachea assessed as inhibition of histamine-induced bronchoconstriction at 3 nmol/Kg, IT(Intratracheal) measured after 1 hr by Konzett-Roessler methodology relative to control; assay type: functional; conditions: Cavia porcellus
Trachea [11] = assay: as §1, with “Bifunctional” for “In vivo”, “receptor /agonist activity at beta-2 adrenoceptor” for “receptor”, “hr” for “hr in presence of ICI-118551”; assay type: functional; conditions: Cavia porcellus
[12] = (§2) In vivo antagonist activity at muscarinic M3 receptor in Dunkin-Hartley guinea pig trachea assessed as inhibition of acetylcholine-induced bronchoconstriction at 3 nmol/Kg, IT(Intratracheal) measured after 24 hr in presence of ICI-118551 by Konzett-Roessler methodology relative to control; assay type: functional; conditions: Cavia porcellus
[13] = In vivo agonist activity at beta-2 adrenoceptor in Dunkin-Hartley guinea pig trachea assessed as inhibition of histamine-induced bronchoconstriction at 3 nmol/Kg, IT(Intratracheal) measured after 24 hr by Konzett-Roessler methodology relative to control; assay type: functional; conditions: Cavia porcellus
Trachea [14] = assay: as §2, with “Bifunctional” for “In vivo”, “receptor /agonist activity at beta-2 adrenoceptor” for “receptor”, “hr” for “hr in presence of ICI-118551”; assay type: functional; conditions: Cavia porcellus
[15] = (§3) In vivo antagonist activity at muscarinic M3 receptor in Dunkin-Hartley guinea pig trachea assessed as inhibition of acetylcholine induced bronchoconstriction at 1 nmol/Kg, IT(Intratracheal) measured after 1 hr in presence of ICI-118551 by Konzett-Roessler methodology relative to control; assay type: functional; conditions: Cavia porcellus
[16] = (§4) In vivo antagonist activity at muscarinic M3 receptor in Dunkin-Hartley guinea pig trachea assessed as inhibition of acetylcholine induced bronchoconstriction at 1 nmol/Kg, IT(Intratracheal) measured after 24 hr in presence of ICI-118551 by Konzett-Roessler methodology relative to control; assay type: functional; conditions: Cavia porcellus
[17] = In vivo agonist activity at beta-2 adrenoceptor in Dunkin-Hartley guinea pig trachea assessed as inhibition of histamine induced bronchoconstriction at 1 nmol/Kg, IT(Intratracheal) measured after 1 hr by Konzett-Roessler methodology relative to control; assay type: functional; conditions: Cavia porcellus
[18] = In vivo agonist activity at beta-2 adrenoceptor in Dunkin-Hartley guinea pig trachea assessed as inhibition of histamine induced bronchoconstriction at 1 nmol/Kg, IT(Intratracheal) measured after 24 hr by Konzett-Roessler methodology relative to control; assay type: functional; conditions: Cavia porcellus
Trachea [19] = assay: as §3, with “Bifunctional” for “In vivo”, “receptor /agonist activity at beta-2 adrenoceptor” for “receptor”, “hr” for “hr in presence of ICI-118551”; assay type: functional; conditions: Cavia porcellus
Trachea [20] = assay: as §4, with “Bifunctional” for “In vivo”, “receptor /agonist activity at beta-2 adrenoceptor” for “receptor”, “hr” for “hr in presence of ICI-118551”; assay type: functional; conditions: Cavia porcellus
[21] = Cmax in Dunkin-Hartley guinea pig lung at 500 nmol/Kg, IT(Intratracheal) measured after 72 hrs by LC/MS-MS analysis; assay type: ADME, tissue-based, Cavia porcellus; design: time 72 hrs, dose 500 nmol/kg, route it(Intratracheal); conditions: inhaled or intranasal
[22] = Tmax in Dunkin-Hartley guinea pig lung at 500 nmol/Kg, IT(Intratracheal) measured after 72 hrs by LC/MS-MS analysis; assay type: ADME, tissue-based, Cavia porcellus; conditions: inhaled or intranasal
[23] = AUClast in Dunkin-Hartley guinea pig lung at 500 nmol/Kg, IT(Intratracheal) measured after 72 hrs by LC/MS-MS analysis; assay type: ADME, tissue-based, Cavia porcellus; conditions: in vivo, inhaled_or_intranasal
[24] = AUCinfinity in Dunkin-Hartley guinea pig lung at 500 nmol/Kg, IT(Intratracheal) measured after 72 hrs by LC/MS-MS analysis; assay type: ADME, tissue-based, Cavia porcellus; design: dose 500 nmol/kg, time 72 hrs, route it(Intratracheal); conditions: in vivo, inhaled_or_intranasal
[25] = Half life in Dunkin-Hartley guinea pig lung at 500 nmol/Kg, IT(Intratracheal) measured after 72 hrs by LC/MS-MS analysis; assay type: ADME, tissue-based, Cavia porcellus; conditions: inhaled or intranasal
[26] = Cmax in Dunkin-Hartley guinea pig plasma at 500 nmol/Kg, IT(Intratracheal) measured after 72 hrs by LC/MS-MS analysis; assay type: ADME, cell-free, Cavia porcellus; design: dose 500 nmol/kg, time 72 hrs, route it(Intratracheal); conditions: inhaled or intranasal
[27] = Tmax in Dunkin-Hartley guinea pig plasma at 500 nmol/Kg, IT(Intratracheal) measured after 72 hrs by LC/MS-MS analysis; assay type: ADME, cell-free, Cavia porcellus; conditions: inhaled or intranasal
[28] = AUClast in Dunkin-Hartley guinea pig plasma at 500 nmol/Kg, IT(Intratracheal) measured after 72 hrs by LC/MS-MS analysis; assay type: ADME, cell-free, Cavia porcellus; design: time 72 hrs, dose 500 nmol/kg, route it(Intratracheal); conditions: inhaled or intranasal
[29] = AUCinfinity in Dunkin-Hartley guinea pig plasma at 500 nmol/Kg, IT(Intratracheal) measured after 72 hrs by LC/MS-MS analysis; assay type: ADME, cell-free, Cavia porcellus; design: dose 500 nmol/kg, time 72 hrs, route it(Intratracheal); conditions: inhaled or intranasal
[30] = Half life in Dunkin-Hartley guinea pig plasma at 500 nmol/Kg, IT(Intratracheal) measured after 72 hrs by LC/MS-MS analysis; assay type: ADME, cell-free, Cavia porcellus; conditions: inhaled or intranasal
[31] = Mutagenicity in Salmonella typhimurium assessed as induction of reverse mutation by Ames test; assay type: toxicity; conditions: salmonella enterica subsp. enterica serovar typhimurium
[32] = Mutagenicity in Escherichia coli assessed as induction of reverse mutation by Ames test; assay type: toxicity
Trachea [33] = assay: (§5) Bifunctional antagonist activity at muscarinic M3 receptor /agonist activity at beta-2 adrenoceptor in Dunkin-Hartley guinea pig trachea assessed as inhibition of acetylcholine-induced bronchoconstriction at 1 nmol/Kg, IT(Intratracheal) measured after 5 mins by Konzett-Roessler methodology relative to control; assay type: functional; conditions: Cavia porcellus
Trachea [34] = assay: as §5, with “15” for “5”; assay type: functional; conditions: Cavia porcellus, 0.25 h
Trachea [35] = assay: as §5, with “30” for “5”; assay type: functional; conditions: Cavia porcellus, 0.5 h

SMILES: O=C(N[C@@H](c1ccccc1)c1cccc(OCc2cccc(C(=O)OCCCCNC[C@H](O)c3ccc(O)c4[nH]c(=O)ccc34)c2)c1)O[C@H]1CN2CCC1CC2
- half-life at 1 µM [1]: 17.2 min
- half-life at 5 µM [2]: < 5 min
- half-life at 5 µM [3]: 103 min
- Time (Trachea [4]): >225 min
- IC50 (Trachea [5]): 0.501 nM

SMILES: O=C(NC(c1ccccc1)c1cccc(OCc2ccc(C(=O)OCCCCNC[C@H](O)c3ccc(O)c4[nH]c(=O)ccc34)cc2)c1)O[C@H]1CN2CCC1CC2 (mixture of isomers)
- half-life at 5 µM [2]: < 5 min
- half-life at 5 µM [3]: < 5 min
- Time (Trachea [4]): >270 min
- IC50 (Trachea [5]): 0.0794 nM

SMILES: O=C(N[C@@H](c1ccccc1)c1cccc(OCc2ccc(C(=O)OCCCCNC[C@H](O)c3ccc(O)c4[nH]c(=O)ccc34)o2)c1)O[C@H]1CN2CCC1CC2
- half-life at 1 µM [6]: 120 min
- half-life at 1 µM [1]: 32 min
- half-life at 1 µM [7]: > 120 min
- half-life at 5 µM [2]: < 5 min
- half-life at 5 µM [3]: 7 min
- half-life at 5 µM [8]: > 120 min
- inhibition in vivo at 0.003 µmol/kg [9]: 73.7%
- inhibition in vivo at 0.003 µmol/kg [10]: 84.5%
- inhibition in vivo at 0.003 µmol/kg (Trachea [11]): 78.3%
- inhibition in vivo at 0.003 µmol/kg [12]: 43.5%
- inhibition in vivo at 0.003 µmol/kg [13]: 48.7%
- inhibition in vivo at 0.003 µmol/kg (Trachea [14]): 60.6%
- Time (Trachea [4]): >225 min
- IC50 (Trachea [5]): 0.2 nM
- inhibition in vivo at 0.001 µmol/kg [15]: 64.7%
- inhibition in vivo at 0.001 µmol/kg [16]: 9.4%
- inhibition in vivo at 0.001 µmol/kg [17]: 67.8%
- inhibition in vivo at 0.001 µmol/kg [18]: 48.9%
- inhibition in vivo at 0.001 µmol/kg (Trachea [19]): 72%
- inhibition in vivo at 0.001 µmol/kg (Trachea [20]): 34.2%

SMILES: O=C(N[C@@H](c1ccccc1)c1cccc(OCc2nc(C(=O)OCCCCNC[C@H](O)c3ccc(O)c4[nH]c(=O)ccc34)co2)c1)O[C@H]1CN2CCC1CC2
- half-life at 1 µM [6]: 120 min
- half-life at 1 µM [1]: 35 min
- half-life at 1 µM [7]: > 120 min
- half-life at 5 µM [2]: < 5 min
- half-life at 5 µM [3]: < 5 min
- half-life at 5 µM [8]: 77.9 min
- inhibition in vivo at 0.003 µmol/kg [9]: 96.1%
- inhibition in vivo at 0.003 µmol/kg [10]: 97.5%
- inhibition in vivo at 0.003 µmol/kg (Trachea [11]): 97.2%
- inhibition in vivo at 0.003 µmol/kg [12]: 37.2%
- inhibition in vivo at 0.003 µmol/kg [13]: 49.9%
- inhibition in vivo at 0.003 µmol/kg (Trachea [14]): 58.8%
- Time (Trachea [4]): >270 min
- IC50 (Trachea [5]): 0.251 nM
- inhibition in vivo at 0.001 µmol/kg [15]: 65.5%
- inhibition in vivo at 0.001 µmol/kg [16]: 23.8%
- inhibition in vivo at 0.001 µmol/kg [17]: 67.7%
- inhibition in vivo at 0.001 µmol/kg (Trachea [19]): 70%
- inhibition in vivo at 0.001 µmol/kg (Trachea [20]): 31.9%

SMILES: O=c1ccc2c([C@@H](O)CNCCCCO)ccc(O)c2[nH]1
- Cmax [21]: 334 ng/g
- Tmax [22]: 4.98 min
- AUClast [23]: 2429 ng·h/g
- AUC [24]: 3517 ng·h/g
- half-life [25]: 858 min
- Cmax [26]: 13.8 ng/g
- Tmax [27]: 4.98 min
- AUC(0-t) at 72 h [28]: 30.7 ng·h/mL
- AUC(0-inf) [29]: 58.9 ng·h/mL
- half-life [30]: 464 min
- Activity [31]: Non-Toxic
- Activity [32]: Non-Toxic
- inhibition in vivo at 0.001 µmol/kg (Trachea [33]): 51.4%
- inhibition in vivo at 0.001 µmol/kg (Trachea [34]): 23.2%
- inhibition in vivo at 0.001 µmol/kg (Trachea [35]): 22%
